Values of other authors as cited in PubChem BioAssay AID1259409 (Chemical Carcinogenesis Research Information System (CCRIS), 2018).
Values joined by “and” are separate entries in the source; they are usually repeats but may differ in a detail not shown here. Equal values may be shown once.

System: rodent chemically induced tumor inhibition, incidence and multiplicity
Assay: CCRIS tumor inhibitor studies
Details: Dose [Inhibitor]: 0

## CN1C(=O)NC(c2ccccc2)(c2ccccc2)C1=O
Carcinogen: 7,12-DIEMTHYLBENZ[A]ANTHRACENE, 57-97-6, 200 UG/D IN ETHANOL/DRINKING WATER SOLUTION (1:500 ML) ADMINISTERED TO PINEALECTOMIZED RATS BEGINNING 1 WK POST CARCI, Route [Inhibitor]: ORAL, Species: RAT, Strain/Sex: SPRAGUE-DAWLEY/FEMALE, Target Tissue: Type of Lesion: MAMMARY GLAND: TUMOR, Dose [Carcinogen]: 10 MG/ML SESAME OIL ADMINISTERED ONCE AT 55 D OF AGE, Promoter: NONE USED
  tumour outcome (control, treated, inhibition, significance): 80%, 36%, 55%, p<0.05
Carcinogen: 7,12-DIMETHYLBENZ[A]ANTHRACENE, 57-97-6, 200 UG/D ETHANOL/DRINKING WATER SOLUTION (1:500 ML) ADMINISTERED TO INTACT RATS BEGINNING 1 WK POST CARCINOGEN DOSE A, Route [Inhibitor]: ORAL, Species: RAT, Strain/Sex: SPRAGUE-DAWLEY/FEMALE, Target Tissue: Type of Lesion: MAMMARY GLAND: TUMOR, Dose [Carcinogen]: 10 MG/ML SESAME OIL ADMINISTERED ONCE AT 55 D OF AGE, Promoter: NONE USED
  tumour outcome (control, treated, inhibition, significance): 88%, 24%, 73%, p<0.005
Carcinogen: 7,12-DIMETHYLBENZ[A]ANTHRACENE, 57-97-6, 200 UG/D IN ETHANOL/DRINKING WATER SOLUTION (1:500 ML) ADMINISTERED TO INTACT RATS BEGINNING 1 WK POST CARCINOGEN DOS, Route [Inhibitor]: ORAL, Species: RAT, Strain/Sex: SPRAGUE-DAWLEY/FEMALE, Target Tissue: Type of Lesion: MAMMARY GLAND: TUMOR, Dose [Carcinogen]: 10 MG/ML SESAME OIL ADMINISTERED ONCE AT 55 D OF AGE, Promoter: NONE USED
  tumour outcome (control, treated, inhibition, significance): 70%, 16%, 77%, p<0.005
Carcinogen: 7,12-DIMETHYLBENZ[A]ANTHRACENE, 57-97-6, 200 UG/D IN ETHANOL/DRINKING WATER SOLUTION (1:500 ML) ADMINISTERED TO INTACT RATS BEGINNING 1 WK PRIOR TO CARCINOGEN, Route [Inhibitor]: ORAL, Species: RAT, Strain/Sex: SPRAGUE-DAWLEY/FEMALE, Target Tissue: Type of Lesion: MAMMARY GLAND: TUMOR, Dose [Carcinogen]: 10 MG/ML SESAME OIL ADMINISTERED ONCE AT 55 D OF AGE, Promoter: NONE USED
  tumour outcome (control, treated, inhibition, significance): 70%, 27%, 61%, p<0.05 and 88%, 38%, 57%, p<0.05
Carcinogen: 7,12-DIMETHYLBENZ[A]ANTHRACENE, 57-97-6, 200 UG/D IN ETHANOL/DRINKING WATER SOLUTION (1:500 ML) ADMINISTERED TO PINEALECTOMIZED RATS BEGINNING 1 WK POST CARCI, Route [Inhibitor]: ORAL, Species: RAT, Strain/Sex: SPRAGUE-DAWLEY/FEMALE, Target Tissue: Type of Lesion: MAMMARY GLAND: TUMOR, Dose [Carcinogen]: 10 MG/ML SESAME OIL ADMINISTERED ONCE AT 55 D OF AGE, Promoter: NONE USED
  tumour outcome (control, treated, inhibition, significance): 90%, 31%, 66%, p<0.005
Carcinogen: 7,12-DIMETHYLBENZ[A]ANTHRACENE, 57-97-6, 200 UG/D IN ETHANOL/DRINKING WATER SOLUTION (1:500 ML) ADMINISTERED TO PINEALECTOMIZED RATS BEGINNING 1 WK PRIOR TO C, Route [Inhibitor]: ORAL, Species: RAT, Strain/Sex: SPRAGUE-DAWLEY/FEMALE, Target Tissue: Type of Lesion: MAMMARY GLAND: TUMOR, Dose [Carcinogen]: 10 MG/ML SESAME OIL ADMINISTERED ONCE AT 55 D OF AGE, Promoter: NONE USED
  tumour outcome (control, treated, inhibition, significance): 90%, 64%, 29%, not calculated
Carcinogen: 7,12-DIMETHYLBENZ[A]ANTHRACENE, 57-97-6, 200 UG/D IN ETHANOL/DRINKING WATER SOLUTION. (1:500 ML) ADMINISTERED TO PINEALECTOMIZED RATS BEGINNING 1 WK PRIOR TO, Route [Inhibitor]: ORAL, Species: RAT, Strain/Sex: SPRAGUE-DAWLEY/FEMALE, Target Tissue: Type of Lesion: MAMMARY GLAND: TUMOR, Dose [Carcinogen]: 10 MG/ML SESAME OIL ADMINISTERED ONCE AT 55 D OF AGE, Promoter: NONE USED
  tumour outcome (control, treated, inhibition, significance): 80%, 65%, 19%, not calculated

## CCN1CCCC1CNC(=O)c1cc(S(N)(=O)=O)ccc1OC (centres undefined)
Carcinogen: N-METHYL-N'-NITRO-N-NITROSOGUANIDINE, 70-25-7, 30 MG/KG 1/2 D BEGINNING 1 WK POST CARCINOGEN TREATMENT AND CONTINUING FOR DURATION OF STUDY (STUDY DURATION: 52 WK), Route [Inhibitor]: SUBCUTANEOUS, Species: RAT, Strain/Sex: WISTAR/MALE, Target Tissue: Type of Lesion: STOMACH: ADENOCARCINOMA, Dose [Carcinogen]: 50 UG/ML IN DRINKING WATER FOR 25 WK, Promoter: NONE USED
  tumour outcome (control, treated, inhibition, significance): 13/18 (72%), 11/18 (61%), 15%, not significant
Carcinogen: N-METHYL-N'-NITRO-N-NITROSOGUANIDINE, 70-25-7, 30 MG/KG IN 2 ML/KG 0.9% NACL 1/2 D FOR STUDY DURATION BEGINNING POST CARCINOGEN TREATMENT (STUDY DURATION: 52 WK), Route [Inhibitor]: SUBCUTANEOUS, Species: RAT, Strain/Sex: WISTAR/MALE, Target Tissue: Type of Lesion: GLANDULAR STOMACH: ADENOCARCINOMA, Dose [Carcinogen]: 50 UG/ML DRINKING WATER FOR 25 WK
  tumour outcome (control, treated, inhibition, significance): 13/18 (72%), 11/18 (61%), 15%, not significant

## Brc1cc2c(cc1Br)Oc1cc(Br)c(Br)cc1O2
Carcinogen: 7,12-DIMETHYLBENZ[A]ANTHRACENE, 57-97-6, 17 NMOL 2/WK APPLIED 1 HR PRIOR TO EACH PROMOTER DOSE FOR 10 WK (STUDY DURATION: 11 WK), Route [Inhibitor]: DERMAL, Species: MOUSE, Target Tissue: Type of Lesion: SKIN: TUMOR, Dose [Carcinogen]: 390 NMOL ONCE, Promoter: 12-O-TETRADECANOYLPHORBOL-13-ACETATE, 16561-29-8
  tumour outcome (control, treated, inhibition, significance): 100%, 0%, 100%, not calculated

## CC1(S(=O)(=O)O)CC(=O)c2ccccc2C1=O (centres undefined)
Carcinogen: 1,2-DIMETHYLHYDRAZINE, 540-73-8, 20 MG/KG 3/WK FOR 24 WK BEGINNING FIRST WK OF CARCINOGEN TREATMENT (STUDY DURATION: 28 WK), Route [Inhibitor]: GAVAGE, Species: MOUSE, Strain/Sex: ICR/FEMALE, Target Tissue: Type of Lesion: COLON: TUMOR, Dose [Carcinogen]: 20 MG/KG 1/WK FOR 20 WK, Promoter: NONE USED
  tumour outcome (control, treated, inhibition, significance): 9/13 (69%), 4/13 (31%), 55%, p<0.05
Carcinogen: 1,2-DIMETHYLHYDRAZINE, 540-73-8, 20 MG/KG 3/WK FOR 28 WK BEGINNING FIRST WK OF CARCINOGEN TREATMENT (STUDY DURATION: 28 WK), Route [Inhibitor]: GAVAGE, Species: MOUSE, Strain/Sex: ICR/FEMALE, Target Tissue: Type of Lesion: COLON: TUMOR, Dose [Carcinogen]: 20 MG/KG 1/WK FOR 20 WK, Promoter: NONE USED
  tumour outcome (control, treated, inhibition, significance): 13/13 (100%), 8/13 (62%), 38%, p<0.05
Carcinogen: 1,2-DIMETHYLHYDRAZINE, 540-73-8, 40 MG/KG 3/WK FOR 24 WK BEGINNING FIRST WK OF CARCINOGEN TREATMENT (STUDY DURATION: 28 WK), Route [Inhibitor]: GAVAGE, Species: MOUSE, Strain/Sex: ICR/FEMALE, Target Tissue: Type of Lesion: COLON: TUMOR, Dose [Carcinogen]: 20 MG/KG 1/WK FOR 20 WK, Promoter: NONE USED
  tumour outcome (control, treated, inhibition, significance): 9/13 (69%), 4/13 (31%), 55%, p<0.05
Carcinogen: 1,2-DIMETHYLHYDRAZINE, 540-73-8, 40 MG/KG 3/WK FOR 28 WK BEGINNING FIRST WK OF CARCINOGEN TREATMENT (STUDY DURATION: 28 WK), Route [Inhibitor]: GAVAGE, Species: MOUSE, Strain/Sex: ICR/FEMALE, Target Tissue: Type of Lesion: COLON: TUMOR, Dose [Carcinogen]: 20 MG/KG 1/WK FOR 20 WK, Promoter: NONE USED
  tumour outcome (control, treated, inhibition, significance): 13/13 (100%), 8/13 (62%), 38%, p<0.05
